According to patent publication US12458605B2, “Lipid nanoparticle” (National University Corporation Hokkaido University, priority 2020, dated 2025):

Assays:
[1] = Average particle size and PDI by dynamic light scattering (Zetasizer Nano ZS); format: physicochemical
Experimental: (§1) The average particle size (number-average value) and PDI in PBS(−) and zeta potential in 10 mM HEPES buffer solution (pH 7.4) of lipid nanoparticles were measured using “Zetasizer Nano ZS ZEN3600”, an analyzer utilizing dynamic light scattering (manufactured by Malvern).

[2] = Zeta potential in 10 mM HEPES buffer (pH 7.4); format: physicochemical
Experimental: as §1

[3] = Nucleic acid encapsulation rate by Ribogreen (section II); format: physicochemical; settings: for % mRNA encapsulation: NlucmRNA-loaded LNP, 60:10:40:1; for % pDNA encapsulation: pFluc-loaded LNP
Experimental: The encapsulation rates of siRNA, mRNA, and pDNA of lipid nanoparticles were measured using Ribogreen (manufactured by life technologies).

[4] = Average particle size (ζ-Average) and PDI by dynamic light scattering (Zetasizer Nano ZSP); format: physicochemical
Summary of the method: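 Dynamic light scattering of the particles in PBS(−) gave both the polydispersity index and the ζ-Average mean size.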

[5] = siRNA/mRNA encapsulation rate by Ribogreen reagent (section IV); format: physicochemical; settings: for % siRNA encapsulation: F7siRNA-loaded LNP, 50:10:38.5:1.5, N/P ratio 6; for % mRNA encapsulation: FlucmRNA-loaded LNP, 50:10:38.5:1.5
Summary of the method: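 Encapsulation % was calculated as (total − surface nucleic acid)/total × 100, with both values measured by RiboGreen fluorescence at 485/528 nm. Total RNA was read on LNPs lysed with 1% Triton X-100 at 1.2 μg/mL, and surface RNA on intact LNPs at 8 μg/mL in TE buffer. Concentrations came from a 0-2.5 μg/mL Triton-containing calibration curve.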

[6] = tested on: liver; experiment: In vivo Fluc activity of FlucmRNA-loaded LNP by in vivo imaging, liver; settings: Balb/c mice, 6 hours; for Fluc Activity in liver: FlucmRNA-loaded LNP i.v. 0.1 mg mRNA/kg
Summary of the method: (§2)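 Read-out is average radiance (p/s/cm2/sr, about 560 nm) from whole-animal imaging of liver and spleen 6 h post-dose, after tail-vein luciferin at 1.5 mg/mouse. Dosing was intravenous, 0.1 mg mRNA/kg, in 7-week-old female Balb/c mice.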

[7] = tested on: spleen; experiment: In vivo Fluc activity of FlucmRNA-loaded LNP by in vivo imaging, spleen; settings: Balb/c mice, 6 hours; for Fluc Activity in spleen: FlucmRNA-loaded LNP i.v. 0.1 mg mRNA/kg; for Fluc activity in the spleen, compared with CL15F6: versus LNP comprising CL15F6 (Table 7)
Summary of the method: as §2

[8] = tested on: F7; experiment: In vivo F7 knockdown, plasma F7 enzyme activity (BIOPHEN FVII), Balb/c mice; settings: for F7 enzyme activity (%) / F7 enzyme activity (Ratio using MC3 as 1): i.v. 0.025 mg siRNA/kg, plasma at 24 hours; for F7 enzyme activity (%): untreated mice as 100%; for F7 enzyme activity (Ratio using MC3 as 1): relative plasma F7 activity of MC3 LNP as 1
Summary of the method: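 Plasma factor VII activity was read 24 h after a single intravenous 0.025 mg siRNA/kg dose of siRNA-loaded lipid nanoparticles in 5-week-old female Balb/c mice. Activity is relative to untreated animals (100%) and normalised to the MC3 nanoparticle benchmark (=1).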

[9] = Storage stability of FlucmRNA-loaded LNP at −80, 5, 25 and 40° C.; format: physicochemical; settings: for period for which quality remained good, −80° C.: maximum storage period 1 week; for period for which quality remained good, 5° C. / period for which quality remained good, 25° C. / period for which quality remained good, 40° C. (days) / period for which quality remained good, 40° C. (weeks): maximum storage period 5 weeks; for quality at production (storage stability criteria): criteria: PDI 0.2 or less, encapsulation 80% or more
Summary of the method: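 Reported period is how long all three criteria hold: encapsulation rate at 80% or more, PDI of 0.2 or less, and mean particle size within +/−20 nm of day-of-preparation value. Particle size, PDI and nucleic acid encapsulation were tracked over time at storage temperatures of −80, 5, 25 and 40° C.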

[10] = NlucmRNA-loaded LNP, 60:10:40:1
[11] = NlucmRNA-loaded LNP, lipid:DSPC:cholesterol:PEG-DMG 60:10:40:1
[12] = pFluc-loaded LNP, 50:10:40:1.5, N/P ratio 6
[13] = pFluc-loaded LNP, 50:10:40:1.5, N/P ratio 9
[14] = F7siRNA-loaded LNP, 50:10:38.5:1.5, N/P ratio 6
[15] = FlucmRNA-loaded LNP, 50:10:38.5:1.5
[16] = FlucmRNA-loaded LNP, lipid:DSPC:cholesterol:DMG-PEG2K 50:10:38.5:1.5

| PDI [4, 14] | ζ-Average (nm) [4, 14] | PDI [4, 15] | ζ-Average (nm) [4, 16] | % siRNA encapsulation [5] | % mRNA encapsulation [5] | period for which quality remained good, −80° C. [9] | period for which quality remained good, 5° C. [9] | period for which quality remained good, 25° C. [9] | period for which quality remained good, 40° C. (weeks) [9] | SMILES | Fluc Activity in liver [6] | Fluc Activity in spleen [7] | F7 enzyme activity (%) [8] | F7 enzyme activity (Ratio using MC3 as 1) [8] | other results |
| --- | --- | --- | --- | --- | --- | --- | --- | --- | --- | --- | --- | --- | --- | --- | --- |
| 0.142 | 123.50 nm | 0.238 | 180.90 nm | 100.2% | 83.8% | – | – | – | – | CCCCCCCC/C=C\CCCCCCCC(=O)OCCCCCCC(O)(CCCCCCOC(=O)CCCCCCC/C=C\CCCCCCCC)CCCCOC(=O)C1CCN(C)CC1 [CL15H6, 7-hydroxy-7-(4-((1-methylpiperidine-4-carbonyl)oxy)butyl)tridecane-1,13-diyl dioleate, reference compound] | 1.17E+05 Avg Radiance [p/s/cm2/sr] | 6.17E+05 Avg Radiance [p/s/cm2/sr] | – | 1.99 | PdI [1, 10]: 0.495; ζ-Average (nm) [1, 11]: 94.34 nm; ζ-Average (nm) [1, 12]: 121.7 nm; ζ-Average (nm) [1, 13]: 149.9 ± 9.8 nm; PdI ([1]; pFluc-loaded LNP, N/P ratio 6): 0.08; PdI ([1]; pFluc-loaded LNP, N/P ratio 9): 0.11 ± 0.01; ζ-potential (mV) [2, 10]: 0.123 mV; ζ-potential (mV) ([2]; pFluc-loaded LNP, N/P ratio 6): 0.367 mV; ζ-potential (mV) ([2]; pFluc-loaded LNP, N/P ratio 9): 0.9 ± 0.9 mV; % mRNA encapsulation [3]: 90.5%; % pDNA encapsulation ([3]; N/P ratio 6): 72.4%; % pDNA encapsulation ([3]; N/P ratio 9): 81.9 ± 3^ %; quality at production (storage stability criteria) [9]: Does not meet the criteria for “good” at production |
| 0.041 | 99.44 nm | 0.026 | 99.84 nm | 100.6% | 99.78% | 1 week | 5 weeks | 5 weeks | 5 weeks | CCCCCCCCC(CCCCCCCC)C(=O)OCCCCCCC(O)(CCCCCCOC(=O)C(CCCCCCCC)CCCCCCCC)CCCCOC(=O)C1CCN(C)CC1 [CL15F 10-8] | 1.35E+07 Avg Radiance [p/s/cm2/sr] | 8.42E+06 Avg Radiance [p/s/cm2/sr] | – | 0.52 | Fluc activity in the liver, compared with CL15F6 ([6]; 0.1 mg mRNA/kg, versus LNP comprising CL15F6 (Table 7)): higher Fluc activity; Fluc activity in the spleen, compared with CL15F6 ([7]; 0.1 mg mRNA/kg): higher Fluc activity; knockdown activity, compared with MC3 ([8]; F7siRNA-loaded LNP, versus LNP comprising MC3): higher knockdown activity |
| 0.081 | 126.0 nm | 0.048 | 142.90 nm | 100.3% | 98.62% | 0 week | 5 weeks | 5 weeks | 5 weeks | CCCCCCCCCCCC(CCC)C(=O)OCCCCCCC(O)(CCCCCCOC(=O)C(CCC)CCCCCCCCCCC)CCCCOC(=O)C1CCN(C)CC1 (stereo not drawn) [CL15F 13-3] | 3.51E+06 Avg Radiance [p/s/cm2/sr] | 6.11E+06 Avg Radiance [p/s/cm2/sr] | – | 1.11 | Fluc activity in the spleen, compared with CL15F6 ([7]; 0.1 mg mRNA/kg): higher Fluc activity |

Continued, molecule first:

| SMILES | PDI [4, 14] | ζ-Average (nm) [4, 14] | PDI [4, 15] | ζ-Average (nm) [4, 16] | % siRNA encapsulation [5] | % mRNA encapsulation [5] | period for which quality remained good, −80° C. [9] | period for which quality remained good, 5° C. [9] | period for which quality remained good, 25° C. [9] | period for which quality remained good, 40° C. (weeks) [9] | Fluc Activity in liver [6] | Fluc Activity in spleen [7] | F7 enzyme activity (%) [8] | F7 enzyme activity (Ratio using MC3 as 1) [8] | other results |
| --- | --- | --- | --- | --- | --- | --- | --- | --- | --- | --- | --- | --- | --- | --- | --- |
| CCCCCCCC/C=C\CCCCCCCC(=O)OCCCCCCC(O)(CCCCCCOC(=O)CCCCCCC/C=C\CCCCCCCC)CCCCN(CCC)CCC [CL4H6, 7-(4-(dipropylamino)butyl)-7-hydroxytridecane-1,13-diyl dioleate, reference compound] | 0.102 | 68.86 nm | 0.072 | 71.28 nm | 96.1% | 80.1% | 0 week | 0 week weeks | 1 week weeks | – | 1.06E+07 Avg Radiance [p/s/cm2/sr] | 2.10E+06 Avg Radiance [p/s/cm2/sr] | 47.2% | – | PdI [1, 10]: 0.139; ζ-Average (nm) [1, 11]: 113.4 nm; ζ-Average (nm) [1, 12]: 105.6 nm; ζ-Average (nm) [1, 13]: 113.9 ± 4.2 nm; PdI ([1]; pFluc-loaded LNP, N/P ratio 6): 0.14; PdI ([1]; pFluc-loaded LNP, N/P ratio 9): 0.2 ± 0.03; ζ-potential (mV) [2, 10]: −1.23 mV; ζ-potential (mV) ([2]; pFluc-loaded LNP, N/P ratio 6): −0.57 mV; ζ-potential (mV) ([2]; pFluc-loaded LNP, N/P ratio 9): −0.4 ± 0.4 mV; % mRNA encapsulation [3]: 77.6%; % pDNA encapsulation ([3]; N/P ratio 6): 41.5%; % pDNA encapsulation ([3]; N/P ratio 9): 70 ± 5.2%; period for which quality remained good, 40° C. (days) [9]: 0 day days |
| CCCCCCC(CCCCCC)C(=O)OCCCCCCC(O)(CCCCCCOC(=O)C(CCCCCC)CCCCCC)CCCCOC(=O)C1CCN(C)CC1 [CL15F 8-6] | 0.056 | 121.2 nm | 0.011 | 132.00 nm | 100.2% | 99.2% | 1 week | 5 weeks | 5 weeks | 5 weeks | 1.92E+06 Avg Radiance [p/s/cm2/sr] | 5.02E+06 Avg Radiance [p/s/cm2/sr] | – | 1.60 | – |
| CCCCC(CC)C(=O)OCCCCCCC(O)(CCCCCCOC(=O)C(CC)CCCC)CCCCN(CCC)CCC (stereo not drawn) [CL4F 6-2] | 0.298 | 274.50 nm | 0.069 | 218.20 nm | 56.9% | 41.4% | – | – | – | – | 1.34E+03 Avg Radiance [p/s/cm2/sr] | 1.24E+05 Avg Radiance [p/s/cm2/sr] | 54.8% | – | quality at production (storage stability criteria) [9]: Does not meet the criteria for “good” at production |
| CCCCCCCCCCCC(CCC)C(=O)OCCCCCCC(O)(CCCCCCOC(=O)C(CCC)CCCCCCCCCCC)CCCCN(CCC)CCC (stereo not drawn) [CL4F 13-3] | 0.023 | 92.25 nm | 0.044 | 83.05 nm | 99.7% | 96.3% | 0 week | 0 week weeks | 0 week weeks | – | 7.34E+07 Avg Radiance [p/s/cm2/sr] | 7.30E+06 Avg Radiance [p/s/cm2/sr] | 8.4% | – | Fluc activity in the spleen, compared with CL4F6 ([7]; 0.1 mg mRNA/kg, versus LNP comprising CL4F6 (Tables 5 and 6)): higher Fluc activity; period for which quality remained good, 40° C. (days) [9]: 0 day days |
